PubChem BioAssay AID330 (DTP/NCI, 2004)
Values joined by “and” are separate entries in the source; they are usually repeats but may differ in a detail not shown here. Equal entries are not always repeated. Inconclusive results and toxic doses are left out. The calls were made as follows: active = survival T/C of 150% or more; inactive = T/C below 125% in these data.

Test system: P388 leukemia ip, CD2F1 mice, survival T/C
Test: NCI In Vivo Anticancer Drug Screen. Data for tumor model P388 Leukemia (intraperitoneal) in CD2F1 (CDF1) mice
Conditions: endpoint: median survival time, higher = longer survival
Outline: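 Mice carrying the transplanted tumor received test compound or vehicle. Survival was recorded in each group, and the value is the treated-group measurement divided by that of the vehicle-treated control group.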

[1] = dose: 50.0 mg/kg/injection, schedule: Q01DX005 (ip), vehicle: Klucel (hydroxypropylcellulose) (HPC)
[2] = dose: 12.5 mg/kg/injection, schedule: Q01DX009 (ip), vehicle: saline with Tween-80
[3] = dose: 50.0 mg/kg/injection, schedule: Q01DX009 (ip), vehicle: saline with Tween-80
[4] = dose: 100.0 mg/kg/injection, schedule: Q01DX009 (ip), vehicle: saline with Tween-80
[5] = dose: 200.0 mg/kg/injection, schedule: Q01DX009 (ip), vehicle: saline with Tween-80
[6] = dose: 50.0 mg/kg/injection, schedule: Q01DX009 (ip), vehicle: Klucel (hydroxypropylcellulose) (HPC)
[7] = dose: 100.0 mg/kg/injection, schedule: Q01DX009 (ip), vehicle: Klucel (hydroxypropylcellulose) (HPC)
[8] = dose: 200.0 mg/kg/injection, schedule: Q01DX009 (ip), vehicle: Klucel (hydroxypropylcellulose) (HPC)
[9] = dose: 60.0 mg/kg/injection, schedule: Q01DX005 (ip), vehicle: saline with Tween-80
[10] = dose: 120.0 mg/kg/injection, schedule: Q01DX005 (ip), vehicle: saline with Tween-80
[11] = dose: 240.0 mg/kg/injection, schedule: Q01DX005 (ip), vehicle: saline with Tween-80

Measured: T/C

NC(=O)/C=C\C(=O)NC1CCSC1=O (stereo not given)
inactive: dose: 60.0 mg/kg/injection, schedule: Q01DX005 (ip), vehicle: saline + Tween-80 + alcohol 105 % of control | dose: 120.0 mg/kg/injection, schedule: Q01DX005 (ip), vehicle: saline + Tween-80 + alcohol 94 % of control | dose: 240.0 mg/kg/injection, schedule: Q01DX005 (ip), vehicle: saline + Tween-80 + alcohol 100 % of control

O=C(NCCCCNC(=O)C12CC3CC(CC(C3)C1)C2)C12CC3CC(CC(C3)C1)C2
inactive: [1] 90 % of control | dose: 100.0 mg/kg/injection, schedule: Q01DX005 (ip), vehicle: Klucel (hydroxypropylcellulose) (HPC) 90 % of control | dose: 200.0 mg/kg/injection, schedule: Q01DX005 (ip), vehicle: Klucel (hydroxypropylcellulose) (HPC) 86 % of control

CCCCCCCCCC[N+]1(CC)CCCCCC1
inactive: dose: 3.12 mg/kg/injection, schedule: Q01DX009 (ip), vehicle: saline 90 % of control | dose: 6.25 mg/kg/injection, schedule: Q01DX009 (ip), vehicle: saline 98 % of control

O=c1[nH]c(=O)n(O)c2nc[nH]c12
inactive: [2] 90 % of control | dose: 25.0 mg/kg/injection, schedule: Q01DX009 (ip), vehicle: saline with Tween-80 100 % of control | [3] 90 % of control

COP(=O)(OC)/C(=N\NS(=O)(=O)c1ccc(C)cc1)c1ccccc1
inactive: [3] 100 % of control | [4] 103 % of control | [5] 117 % of control | dose: 400.0 mg/kg/injection, schedule: Q01DX009 (ip), vehicle: saline with Tween-80 119 % of control

CN1C(=O)C2C3C=CC(C2C1=O)C1C2C(=O)N(C)C(=O)C2C31 (stereo not given)
inactive: dose: 25.0 mg/kg/injection, schedule: Q01DX009 (ip), vehicle: Klucel (hydroxypropylcellulose) (HPC) 100 % of control | [6] 108 % of control | [7] 111 % of control | [8] 104 % of control and 111 % of control

O=S(=O)(CC(O)C(Cl)(Cl)Cl)N(Cc1ccccc1)Cc1ccccc1 (stereo not given)
inactive: [6] 103 % of control | [7] 103 % of control | [8] 97 % of control

Clc1ccccc1C(c1ccccc1)(c1ccccc1)n1ccnc1
inactive: dose: 50.0 mg/kg/injection, schedule: Q01DX009 (ip), vehicle: saline 113 % of control | dose: 100.0 mg/kg/injection, schedule: Q01DX009 (ip), vehicle: saline 113 % of control | dose: 200.0 mg/kg/injection, schedule: Q01DX009 (ip), vehicle: saline 113 % of control

COc1ccc(C(=O)N2N=C(C)C(C)(C)C2(C)O)cc1 (stereo not given)
inactive: dose: 60.0 mg/kg/injection, schedule: Q01DX005 (ip), vehicle: Klucel (hydroxypropylcellulose) (HPC) 104 % of control | dose: 120.0 mg/kg/injection, schedule: Q01DX005 (ip), vehicle: Klucel (hydroxypropylcellulose) (HPC) 109 % of control | dose: 240.0 mg/kg/injection, schedule: Q01DX005 (ip), vehicle: Klucel (hydroxypropylcellulose) (HPC) 104 % of control

CC(c1ccccc1)C1CC1 (stereo not given)
inactive: [3] 103 % of control | [4] 107 % of control | [5] 98 % of control

CCCCCCCCCCCC(=O)CCCCC
inactive: dose: 100.0 mg/kg/injection, schedule: Q01DX009 (ip), vehicle: other 90 % of control | dose: 200.0 mg/kg/injection, schedule: Q01DX009 (ip), vehicle: other 100 % of control | dose: 400.0 mg/kg/injection, schedule: Q01DX009 (ip), vehicle: other 104 % of control

CCOC(=O)C[N+]1(C)C2CCC1CC(OC(=O)C(CO)c1ccccc1)C2 (stereo not given)
inactive: dose: 12.5 mg/kg/injection, schedule: Q01DX009 (ip), vehicle: saline 100 % of control | dose: 25.0 mg/kg/injection, schedule: Q01DX009 (ip), vehicle: saline 100 % of control

CC1(C)C=Cc2c(ccc3c(=O)c(-c4ccccc4)coc23)O1
inactive: [9] 94 % of control | [10] 98 % of control | [11] 93 % of control

CCc1cc2c(cc1C(=O)CBr)C(C)(C)CCC2(C)C
inactive: dose: 6.25 mg/kg/injection, schedule: Q01DX009 (ip), vehicle: saline with Tween-80 109 % of control | [2] 113 % of control | dose: 12.5 mg/kg/injection, schedule: Q04DX003 (ip), vehicle: saline with Tween-80 118 % of control | dose: 25.0 mg/kg/injection, schedule: Q04DX003 (ip), vehicle: saline with Tween-80 113 % of control

C=C1CC2(CC3C4CC3CC2C4)OC1=O (stereo not given)
inactive: dose: 100.0 mg/kg/injection, schedule: Q01DX001 (ip), vehicle: saline 98 % of control | dose: 200.0 mg/kg/injection, schedule: Q01DX001 (ip), vehicle: saline 99 % of control | dose: 400.0 mg/kg/injection, schedule: Q01DX001 (ip), vehicle: saline 100 % of control

C[C-]=O.C[C-]=O.[C-]#[O+].[C-]#[O+].[C-]#[O+].[C-]#[O+].[Re]
inactive: dose: 12.5 mg/kg/injection, schedule: Q01DX005 (ip), vehicle: Klucel (hydroxypropylcellulose) (HPC) 101 % of control | dose: 25.0 mg/kg/injection, schedule: Q01DX005 (ip), vehicle: Klucel (hydroxypropylcellulose) (HPC) 96 % of control | [1] 93 % of control

COc1ccccc1-n1c(=O)c(N=Nc2ccccc2)c(O)n(-c2ccccc2Cl)c1=S
inactive: dose: 100.0 mg/kg/injection, schedule: Q01DX001 (ip), vehicle: Klucel (hydroxypropylcellulose) (HPC) 97 % of control | dose: 200.0 mg/kg/injection, schedule: Q01DX001 (ip), vehicle: Klucel (hydroxypropylcellulose) (HPC) 95 % of control | dose: 400.0 mg/kg/injection, schedule: Q01DX001 (ip), vehicle: Klucel (hydroxypropylcellulose) (HPC) 94 % of control

O=c1ccc(=O)n(CCc2ccccn2)[nH]1
inactive: [6] 112 % of control | [7] 109 % of control | [8] 108 % of control | dose: 400.0 mg/kg/injection, schedule: Q01DX009 (ip), vehicle: Klucel (hydroxypropylcellulose) (HPC) 106 % of control

CN=C(N)N/N=C(\C)c1ccc2c(ccc3ccccc32)c1
inactive: dose: 6.25 mg/kg/injection, schedule: Q04DX002 (ip), vehicle: saline with Tween-80 105 % of control and 108 % of control | dose: 12.5 mg/kg/injection, schedule: Q04DX002 (ip), vehicle: saline with Tween-80 104 % of control and 107 % of control | dose: 25.0 mg/kg/injection, schedule: Q04DX002 (ip), vehicle: saline with Tween-80 122 % of control | dose: 50.0 mg/kg/injection, schedule: Q04DX002 (ip), vehicle: saline with Tween-80 123 % of control | dose: 100.0 mg/kg/injection, schedule: Q04DX002 (ip), vehicle: saline with Tween-80 123 % of control | dose: 200.0 mg/kg/injection, schedule: Q04DX002 (ip), vehicle: saline with Tween-80 107 % of control

N=c1c2ncn3c(=O)n(-c4ccccc4)c(nc(=O)n1-c1ccccc1)c23
inactive: [9] 101 % of control | [10] 100 % of control | [11] 98 % of control

CC12CCC(C3(C)CCC4CC3(O)C4)C(CO)C1CCC2=O (stereo not given)
inactive: dose: 7.5 mg/kg/injection, schedule: Q01DX005 (ip), vehicle: Klucel (hydroxypropylcellulose) (HPC) 96 % of control | dose: 15.0 mg/kg/injection, schedule: Q01DX005 (ip), vehicle: Klucel (hydroxypropylcellulose) (HPC) 103 % of control | dose: 30.0 mg/kg/injection, schedule: Q01DX005 (ip), vehicle: Klucel (hydroxypropylcellulose) (HPC) 98 % of control

COc1cc2cc(-c3ccc(OC(C)C)c(OC)c3)[n+](C)cc2cc1OC
inactive: dose: 100.0 mg/kg/injection, schedule: Q01DX001 (ip), vehicle: saline with Tween-80 100 % of control | dose: 200.0 mg/kg/injection, schedule: Q01DX001 (ip), vehicle: saline with Tween-80 94 % of control
